Nine molecules from patent EP4740948A1 (Dong Wha Pharm. Co., Ltd., priority 2023, dated 2025) can be followed below.

The term inhibition denotes the relative decrease from the control value, in per cent.

Molecules are shown by their SMILES.

One experiment relates to SW-13 cells. The experiment in a line: Cancer cell proliferation inhibition (Cell Counting Kit-8), adrenal cancer cell line. Format: cell-based. The following applies: 1000 nM, cultured seven to 11 days; for inhibition at 1 µM: Homo sapiens, SW13, 264 h, read-out: % inhibition rate SW-13. The essentials: (§1)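 One dose only (1000 nM), 7–11 d exposure, 10% FBS in line-appropriate medium; CCK-8 endpoint, inhibition expressed relative to control.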
For orientation: Formazan colour is commonly taken as a measure of viable cells.

The target of another experiment is EZH1 (Homo sapiens, UniProt Q92800). Description: AlphaLISA enzyme activity inhibition, EZH1. Format: biochemical. An outline of the steps:
(§2)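 EZH1 or EZH2 was mixed with compound at 5 nM or 10 nM final in 20 mM Tris pH 8.0, 0.1% BSA, 0.5 mM DTT, then histone H3 peptide and SAM were added. After 2 h reaction, AlphaLISA acceptor and donor beads detected methylation; inhibition rate was calculated against DMSO control.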
(In general: Bead proximity is the source of the signal in Alpha formats.)

Another experiment concerns MIA-PaCa-2 cells. Description: Cancer cell proliferation inhibition (Cell Counting Kit-8), pancreatic cancer cell line. The following applies: 1000 nM, cultured seven to 11 days; for inhibition at 1 µM: Homo sapiens, MIA PaCa-2, 264 h, read-out: % inhibition rate MIA-Paca2. Format: cell-based. The essentials: as §1
Another experiment addresses EZH2 (Homo sapiens, UniProt Q15910). Description: AlphaLISA enzyme activity inhibition, EZH2. Format: biochemical. The essentials:
as §2

Another experiment deals with MKN-45 cells. Description: Cancer cell proliferation inhibition (Cell Counting Kit-8), gastric cancer cell line. Format: cell-based. The following applies: 1000 nM, cultured seven to 11 days; for inhibition at 1 µM: Homo sapiens, MKN-45, 264 h, read-out: % inhibition rate MKN -45. The essentials: (§3)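 Cells grown in RPMI1640, McCoy's 5a, L-15 or DMEM with 10% FBS, seeded at 100 to 1,000 cells/well and treated with test substance at 1000 nM for 7 to 11 days. Viability read by CCK-8; % inhibition = {1−(test/control)} × 100.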

The next experiment concerns Lovo cells. The experiment in a line: Cancer cell proliferation inhibition (Cell Counting Kit-8), colorectal cancer cell line. Format: cell-based. Conditions: 1000 nM, cultured seven to 11 days; for inhibition at 1 µM: Homo sapiens, LoVo, 264 h, read-out: % inhibition rate LoVo. The essentials:
as §1

The test system of the next experiment is NCI-H1299 cells. The experiment in a line: Cancer cell proliferation inhibition (Cell Counting Kit-8), lung cancer cell line. The following applies: 1000 nM, cultured seven to 11 days; for inhibition at 1 µM: Homo sapiens, NCI-H1299, 264 h, read-out: % inhibition rate NCI-H129 9. Format: cell-based. The essentials:
as §1

Another experiment has as its system G401 cells. The experiment in a line: Cancer cell proliferation inhibition (Cell Counting Kit-8), rhabdoid tumor cell line. Format: cell-based. Conditions: 1000 nM, cultured seven to 11 days; for % inhibition rate G401: 1 µM; for inhibition at 1 µM: Homo sapiens, G-401, 264 h, read-out: % inhibition rate G401. The essentials: as §3

EZH2, sequence (Q15910 whole entry, species assumed): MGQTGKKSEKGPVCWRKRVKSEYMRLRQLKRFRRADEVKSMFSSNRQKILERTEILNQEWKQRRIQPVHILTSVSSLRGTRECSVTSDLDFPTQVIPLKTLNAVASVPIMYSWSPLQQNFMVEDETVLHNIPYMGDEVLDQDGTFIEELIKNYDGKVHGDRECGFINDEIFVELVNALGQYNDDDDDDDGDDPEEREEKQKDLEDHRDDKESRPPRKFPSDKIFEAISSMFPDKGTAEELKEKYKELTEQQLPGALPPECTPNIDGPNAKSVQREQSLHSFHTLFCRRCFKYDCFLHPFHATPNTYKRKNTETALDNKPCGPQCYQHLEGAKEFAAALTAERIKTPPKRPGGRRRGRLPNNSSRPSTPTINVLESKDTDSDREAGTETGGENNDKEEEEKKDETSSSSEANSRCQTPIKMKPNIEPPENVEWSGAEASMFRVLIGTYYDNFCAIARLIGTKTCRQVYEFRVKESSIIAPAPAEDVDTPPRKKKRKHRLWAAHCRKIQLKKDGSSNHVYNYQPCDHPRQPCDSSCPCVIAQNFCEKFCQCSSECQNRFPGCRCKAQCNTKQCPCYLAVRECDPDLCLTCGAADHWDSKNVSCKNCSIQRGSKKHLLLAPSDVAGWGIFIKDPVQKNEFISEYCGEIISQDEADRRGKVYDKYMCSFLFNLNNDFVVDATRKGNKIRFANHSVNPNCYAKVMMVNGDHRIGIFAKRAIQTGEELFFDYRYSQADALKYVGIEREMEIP
EZH2, sequence (O75530 whole entry partner, species assumed): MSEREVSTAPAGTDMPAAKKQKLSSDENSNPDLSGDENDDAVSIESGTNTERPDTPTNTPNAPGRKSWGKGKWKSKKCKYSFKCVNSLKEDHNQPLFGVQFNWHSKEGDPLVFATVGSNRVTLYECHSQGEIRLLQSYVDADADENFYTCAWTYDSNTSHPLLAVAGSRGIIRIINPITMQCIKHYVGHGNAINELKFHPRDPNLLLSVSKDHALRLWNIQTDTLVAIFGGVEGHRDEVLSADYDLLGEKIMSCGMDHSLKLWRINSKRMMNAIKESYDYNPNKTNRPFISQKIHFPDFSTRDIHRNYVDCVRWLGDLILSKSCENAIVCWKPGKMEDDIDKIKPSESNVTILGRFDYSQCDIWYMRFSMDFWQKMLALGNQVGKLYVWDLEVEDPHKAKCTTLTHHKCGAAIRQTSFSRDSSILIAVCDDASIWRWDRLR
EZH2, sequence (Q15022 whole entry partner, species assumed): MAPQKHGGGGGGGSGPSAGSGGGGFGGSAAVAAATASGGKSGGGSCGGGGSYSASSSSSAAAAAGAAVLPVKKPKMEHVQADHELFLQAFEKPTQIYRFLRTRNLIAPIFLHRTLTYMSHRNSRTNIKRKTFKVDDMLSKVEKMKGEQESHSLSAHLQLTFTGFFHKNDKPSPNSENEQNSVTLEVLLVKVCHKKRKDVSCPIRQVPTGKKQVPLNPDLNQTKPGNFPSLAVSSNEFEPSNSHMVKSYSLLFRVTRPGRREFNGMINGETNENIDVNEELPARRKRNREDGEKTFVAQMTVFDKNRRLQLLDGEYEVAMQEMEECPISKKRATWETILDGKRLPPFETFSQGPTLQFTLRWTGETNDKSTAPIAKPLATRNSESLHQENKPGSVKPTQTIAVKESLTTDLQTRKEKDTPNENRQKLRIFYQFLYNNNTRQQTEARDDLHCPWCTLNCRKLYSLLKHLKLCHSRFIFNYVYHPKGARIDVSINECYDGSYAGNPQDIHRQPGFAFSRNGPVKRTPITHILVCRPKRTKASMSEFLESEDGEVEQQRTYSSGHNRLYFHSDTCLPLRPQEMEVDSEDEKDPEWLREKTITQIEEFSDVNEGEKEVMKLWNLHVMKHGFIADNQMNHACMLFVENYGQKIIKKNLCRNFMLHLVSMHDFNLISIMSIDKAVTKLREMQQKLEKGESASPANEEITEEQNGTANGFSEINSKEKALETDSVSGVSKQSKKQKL
EZH1, sequence (Q92800 whole entry, species assumed): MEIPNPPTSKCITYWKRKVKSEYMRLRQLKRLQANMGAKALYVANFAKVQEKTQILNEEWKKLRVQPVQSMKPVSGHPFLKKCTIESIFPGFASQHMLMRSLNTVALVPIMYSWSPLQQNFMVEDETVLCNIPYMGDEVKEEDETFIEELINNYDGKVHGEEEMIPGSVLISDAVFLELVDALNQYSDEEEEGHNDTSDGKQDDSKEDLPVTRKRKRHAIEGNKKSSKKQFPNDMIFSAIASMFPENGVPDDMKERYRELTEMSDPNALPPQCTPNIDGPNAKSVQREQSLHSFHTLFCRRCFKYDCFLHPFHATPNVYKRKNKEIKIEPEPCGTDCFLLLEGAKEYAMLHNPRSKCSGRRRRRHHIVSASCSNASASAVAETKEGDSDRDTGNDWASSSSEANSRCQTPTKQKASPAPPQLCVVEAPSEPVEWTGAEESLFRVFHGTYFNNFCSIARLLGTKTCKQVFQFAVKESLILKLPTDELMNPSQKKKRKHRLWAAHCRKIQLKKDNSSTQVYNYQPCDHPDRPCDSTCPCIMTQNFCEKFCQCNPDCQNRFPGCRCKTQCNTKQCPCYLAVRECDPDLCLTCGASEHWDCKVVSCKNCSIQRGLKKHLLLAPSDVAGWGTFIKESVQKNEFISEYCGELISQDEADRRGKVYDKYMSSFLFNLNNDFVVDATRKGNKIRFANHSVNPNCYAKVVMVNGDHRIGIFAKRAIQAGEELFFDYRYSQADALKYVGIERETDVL
EZH1, sequence (O75530 whole entry partner, species assumed): as the sequence (O75530 whole entry partner, species assumed) above
EZH1, sequence (Q15022 whole entry partner, species assumed): as the sequence (Q15022 whole entry partner, species assumed) above

For the molecule `CCN(C)c1ncc(-c2cc(C(=O)NCc3c(SC)cc(C)[nH]c3=O)c(C)c3c2OC(C)(C2CCN(CC(F)F)CC2)O3)cn1` (single isomer, unassigned) [Compound 81, 2-(1-(2,2-difluoroethyl)piperidin-4-yl)-7-(2-(ethyl(methyl)amino)pyrimidin-5-yl)-2,4-dimethyl-N-((6-methyl-4-(methylthio)-2-oxo-1,2-dihydropyridin-3-yl)methyl)benzo[d][1,3]dioxole-5-carboxamide], the inhibition at 1 µM in the experiment with SW-13 cells was 30 to 70%; in the experiment on MIA-PaCa-2 cells, no more than 30%; with MKN-45 cells it was 30 to 70%; with Lovo cells, no less than 70%; in the experiment with NCI-H1299 cells it was no more than 30%. For the same molecule, the results for the inhibition at 0.005 µM on EZH1 (5nM test substance) and against EZH2 (5nM test substance) were 80.4% and 99.2%, respectively. The inhibition at 0.01 µM stood at 90.8% against EZH1 (10nM test substance) and 99.8% at EZH2 (10nM test substance). The “% inhibition rate G401” value in the experiment with G401 cells is “+++ (+++: ≥70%)”.

As for `CCN1CCC(C2(C)Oc3c(-c4cnc(N(C)CC)nc4)cc(C(=O)NCc4c(SC)cc(C)[nH]c4=O)c(C)c3O2)CC1` (single isomer, unassigned) [Compound 83, 7-(2-(ethyl(methyl)amino)pyrimidin-5-yl)-2-(1-ethylpiperidin-4-yl)-2,4-dimethyl-N-((6-methyl-4-(methylthio)-2-oxo-1,2-dihydropyridin-3-yl)methyl)benzo[d][1,3]dioxole-5-carboxamide], the inhibition at 1 µM with SW-13 cells was 30 to 70%; with MIA-PaCa-2 cells it was no more than 30%; with MKN-45 cells it was no more than 30%; in the experiment with NCI-H1299 cells, no more than 30%. The values for the inhibition at 0.005 µM against EZH1 (5nM test substance) and against EZH2 (5nM test substance) were 45.3% and 99.2%, respectively. The figures for the inhibition at 0.01 µM against EZH1 (10nM test substance) and against EZH2 (10nM test substance) were 78.8% and 99.4%, respectively. For the same molecule, the “% inhibition rate LoVo” value with Lovo cells (1 µM) is recorded as “+++ (+++: ≥70%)”. Further, the “% inhibition rate G401” value in the experiment with G401 cells is “+++ (+++: ≥70%)”.

Consider `CCN(C)c1ccc(-c2cc(C(=O)NCc3c(SC)cc(C)[nH]c3=O)c(C)c3c2OC(C)(C2CCN(CC(F)(F)F)CC2)O3)cn1` (single isomer, unassigned) [Compound 86, 7-(6-(ethyl(methyl)amino)pyridin-3-yl)-2,4-dimethyl-N-((6-methyl-4-(methylthio)-2-oxo-1,2-dihydropyridin-3-yl)methyl)-2-(1-(2,2,2-trifluoroethyl)piperidin-4-yl)benzo[d][1,3]dioxole-5-carboxamide], for which the “% inhibition rate SW-13” value in the experiment on SW-13 cells (1 µM) is “+ (+: ≤30%)”. Further, the “Enzyme inhibition % EZH1” value on EZH1 (5nM test substance, 0.005 µM) is 42.0%; on EZH1 (10nM test substance, 0.01 µM), 65.9%. The “% inhibition rate MIA-Paca2” value in the experiment on MIA-PaCa-2 cells was “+ (+: ≤30%)”. Besides, the “Enzyme inhibition % EZH2” value on EZH2 (5nM test substance, 0.005 µM) stood at 98.3%; at EZH2 (10nM test substance, 0.01 µM), 99.2%. In the experiment with MKN-45 cells (1 µM), the “% inhibition rate MKN -45” value is “++ (++: more than 30% and less than 70%)”. Further, in the experiment with Lovo cells, the “% inhibition rate LoVo” value is “+++ (+++: ≥70%)”. Besides, in the experiment with NCI-H1299 cells (1 µM), the “% inhibition rate NCI-H129 9” value was “+ (+: ≤30%)”. For the same molecule, in the experiment on G401 cells, the “% inhibition rate G401” value was “+++ (+++: ≥70%)”.

On to `CCN(C)c1ccc(-c2cc(C(=O)NCc3c(SC)cc(C)[nH]c3=O)c(C)c3c2OC(C)(C2CCN(CC(F)F)CC2)O3)cn1` (single isomer, unassigned) [Compound 88, 2-(1-(2,2-difluoroethyl)piperidin-4-yl)-7-(6-(ethyl(methyl)amino)pyridin-3-yl)-2,4-dimethyl-N-((6-methyl-4-(methylthio)-2-oxo-1,2-dihydropyridin-3-yl)methyl)benzo[d][1,3]dioxole-5-carboxamide], for which the inhibition at 1 µM with SW-13 cells was 30 to 70%; with MIA-PaCa-2 cells, no more than 30%; in the experiment with MKN-45 cells, 30 to 70%; in the experiment on Lovo cells, no less than 70%; in the experiment on NCI-H1299 cells it was no more than 30%; in the experiment on G401 cells, no less than 70%. Besides, the values for the inhibition at 0.005 µM on EZH1 (5nM test substance) and against EZH2 (5nM test substance) were 45.2% and 99.5%, respectively. Further, the results for the inhibition at 0.01 µM at EZH1 (10nM test substance) and against EZH2 (10nM test substance) were 62% and 99.9%, respectively.

For `CCN1CCC(C2(C)Oc3c(-c4ccc(N(C)CC)nc4)cc(C(=O)NCc4c(SC)cc(C)[nH]c4=O)c(C)c3O2)CC1` (single isomer, unassigned) [Compound 89, 7-(6-(ethyl(methyl)amino)pyridin-3-yl)-2-(1-ethylpiperidin-4-yl)-2,4-dimethyl-N-((6-methyl-4-(methylthio)-2-oxo-1,2-dihydropyridin-3-yl)methyl)benzo[d][1,3]dioxole-5-carboxamide], the inhibition at 1 µM is 30 to 70% with SW-13 cells; no more than 30% in the experiment with MIA-PaCa-2 cells; no more than 30% in the experiment with MKN-45 cells; no less than 70% with Lovo cells; no more than 30% in the experiment with NCI-H1299 cells; no less than 70% in the experiment on G401 cells. Further, the inhibition at 0.005 µM against EZH1 (5nM test substance) turned out to be 40%; at EZH2 (5nM test substance) it was 99.5%. Further, the inhibition at 0.01 µM is 71% against EZH1 (10nM test substance) and 100% against EZH2 (10nM test substance).

`CSc1cc(C)[nH]c(=O)c1CNC(=O)c1cc(-c2ccc(N3C[C@@H](C)O[C@@H](C)C3)nc2)c2c(c1C)OC(C)([C@H]1CC[C@H](N(C)CC(F)(F)F)CC1)O2` (single isomer, unassigned) [Compound 107]: the inhibition at 1 µM with SW-13 cells was no more than 30%; with MIA-PaCa-2 cells it was no more than 30%; in the experiment on MKN-45 cells, no more than 30%; in the experiment with Lovo cells it was no less than 70%; with NCI-H1299 cells, no more than 30%. For the same molecule, the inhibition at 0.005 µM on EZH1 (5nM test substance) was determined as 39.3%. The “Enzyme inhibition % EZH2” value on EZH2 (5nM test substance, 0.005 µM) was 41.7%. The “% inhibition rate G401” value in the experiment on G401 cells is recorded as “+++ (+++: ≥70%)”.

For the molecule `CSc1cc(C)[nH]c(=O)c1CNC(=O)c1cc(-c2ccc(N3C[C@@H](C)O[C@@H](C)C3)nc2)c2c(c1C)OC(C)([C@H]1CC[C@H](N(C)CC(F)(F)F)CC1)O2` (single isomer, unassigned) [Compound 108], in the experiment on SW-13 cells, the “% inhibition rate SW-13” value is “+ (+: ≤30%)”. The “Enzyme inhibition % EZH1” value on EZH1 (5nM test substance, 0.005 µM) was 20.4%. Further, the “% inhibition rate MIA-Paca2” value with MIA-PaCa-2 cells was “+ (+: ≤30%)”. Moreover, the “Enzyme inhibition % EZH2” value on EZH2 (5nM test substance, 0.005 µM) is listed as 4.3%. In addition, the “% inhibition rate MKN -45” value with MKN-45 cells is “+ (+: ≤30%)”. In addition, the “% inhibition rate LoVo” value in the experiment with Lovo cells is “+++ (+++: ≥70%)”. In addition, the “% inhibition rate NCI-H129 9” value in the experiment on NCI-H1299 cells is recorded as “+ (+: ≤30%)”. Moreover, the “% inhibition rate G401” value in the experiment on G401 cells was “+ (+: ≤30%)”.

`CSc1cc(C)[nH]c(=O)c1CNC(=O)c1cc(-c2ccc(N3C[C@@H](C)O[C@@H](C)C3)nc2)c2c(c1C)OC(C)([C@H]1CC[C@H](N(C)C)CC1)O2` (stereo partly drawn) [Compound 1, 2-(trans-4-(dimethylamino)cyclohexyl)-7-(6-((2S,6R)-2,6-dimethylmorpholino)pyridin-3-yl)-2,4-dimethyl-N-((6-methyl-4-(methylthio)-2-oxo-1,2-dihydropyridin-3-yl)methyl)benzo[d][1,3]dioxole-5-carboxamide]: the inhibition at 1 µM was 30 to 70% with SW-13 cells; no more than 30% in the experiment on MIA-PaCa-2 cells; no more than 30% in the experiment on MKN-45 cells; 30 to 70% with Lovo cells; no more than 30% in the experiment with NCI-H1299 cells; 30 to 70% in the experiment with G401 cells. Besides, the inhibition at 0.005 µM on EZH1 (5nM test substance) was found to be 89.1%; against EZH2 (5nM test substance), 98.7%.

On to `CSc1cc(C)[nH]c(=O)c1CNC(=O)c1cc(-c2cnc(N3C[C@@H](C)O[C@@H](C)C3)nc2)c2c(c1C)OC(C)([C@H]1CC[C@H](N(C)C)CC1)O2` (stereo partly shown) [Compound 2], for which the inhibition at 1 µM was 30 to 70% with SW-13 cells; no more than 30% with MIA-PaCa-2 cells; no more than 30% in the experiment on MKN-45 cells; 30 to 70% with Lovo cells; no more than 30% in the experiment with NCI-H1299 cells; 30 to 70% in the experiment with G401 cells. Further, the inhibition at 0.005 µM against EZH1 (5nM test substance) is 82%; at EZH2 (5nM test substance), 92.9%.
